Here are results for 6 compounds from patent US9974721B2, “Cosmetic composition for lightening skin and hair” (Symrise AG, priority 2013, dated 2018).

For one series, the system named is Human skin. Nature of the series: Depigmentation effect on ex vivo skin (melanin granules, Fontana-Masson, image analysis). As to conditions: 0.1 wt.% in O/W emulsion, topical, 6 days. The format is cell-based. As to the method: Human skin, originating from plastic surgery, was cut into 4×4×3 mm pieces (length×width×height) and placed in culture at the air-liquid interface on a sterilized cotton pad soaked with 5 ml of customized DMEM (Dulbecco's Modified Eagle Medium). Assays were started 24 h after sample acclimatization at 37° C., 5% CO2. O/W emulsions (as described in more detail below) without (=control) and with the test compounds, respectively, were applied topically and incubated for 6 days. Histological sections were prepared and melanin granules stained by Fontana-Masson technique. The granules were quantified by image analysis. The results are compiled in Tables 3.1 and 3.2.
Phases A and B are heated to 70° C. separately. Pemulen TR1 as well as Ultrez-21 are dispersed in phase B when heated to 70° C. Phase B/C is added to phase A by mixing with an Ultra Turrax, followed by emulsifying. Phase D is slowly added to phase A/B/C using a paddle mixer and a pH 5.5-6 is adjusted. The formulation is cooled down while mixing with a paddle mixer. Phase E is added to the mixture of phase A-D.

Series [1] is described as follows: Incorporation into commonly used cosmetic formulations / crystallisation. The format is physicochemical. As to conditions: for incorporation into commonly used cosmetic formulations: own experiments. The source says:
The analogues compound manool was already described as skin lightening active (JP 2006 137705 (Pola) and JP 06072855 (Pola)).

The target in series [2] is plasminogen activator inhibitor-1 (PAI-1) (Homo sapiens, UniProt P05121). As to conditions: US 2010 0137194; cited from earlier work.
Chain of plasminogen activator inhibitor-1 (PAI-1) (P05121 24-402, species assumed): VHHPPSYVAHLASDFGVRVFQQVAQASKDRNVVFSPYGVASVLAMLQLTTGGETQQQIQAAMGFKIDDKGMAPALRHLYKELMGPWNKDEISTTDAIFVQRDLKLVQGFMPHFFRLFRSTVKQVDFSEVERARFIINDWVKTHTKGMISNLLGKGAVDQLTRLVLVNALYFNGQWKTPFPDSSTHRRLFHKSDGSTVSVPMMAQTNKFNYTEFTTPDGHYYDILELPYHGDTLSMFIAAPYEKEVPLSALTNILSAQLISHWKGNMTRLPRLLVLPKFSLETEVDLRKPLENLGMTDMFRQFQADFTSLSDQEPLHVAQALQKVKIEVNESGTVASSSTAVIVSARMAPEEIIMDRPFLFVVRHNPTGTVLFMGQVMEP
Series [3] relates to B16V mouse melanoma cells. Put plainly: Depigmentation effect on melanoma cell cultures (inhibition of pigmentation). The format is cell-based. As to conditions: for IC50: Mus musculus, B16V cells, 0.3 mM tyrosine + 10 nM α-MSH, 96 h, absorption at 400 nm. Here is the method: (§1) B16V mouse melanoma cells are disseminated in a 96-well micro-titre plate in a concentration of 7.5×10^3 cells/well. After cultivation for 24 h at 37° C. and 5% CO2 in RPMI medium, enriched with 10% foetal calf serum, various concentrations of the test substances and 0.3 mM tyrosine and 10 nM α-MSH (α-melanocyte stimulating hormone) are added and incubated for a further 96 h. The maximum concentration of the test substances used corresponds to 0.1 times the value of the IC20 value of the cytotoxicity assay. Only tyrosine and α-MSH are added to the controls. After incubation, sodium hydroxide solution (final concentrations: 1 M) is added to the culture medium and the absorption (A) is measured after 3 h at 400 nm.
(§2) The inhibition of pigmentation in the presence of the test compounds was calculated using the following equation: Inhibition of pigmentation (%)=100−[(Atest compound/Acontrol)×100] wherein Atest compound=absorption of the wells with test substance and with cells Acontrol=absorption of the wells without test substance, but with cells
From the inhibition of pigmentation (%) in a series of dilutions of test compounds, the IC50 for each test compound is calculated. This is the concentration of a test compound at which pigmentation is inhibited by 50%.

Series [4] concerns the target T1, transient receptor potential cation channel-6 (TRPC6) (Homo sapiens, UniProt Q9Y210).
T1 sequence (Q9Y210 1-931): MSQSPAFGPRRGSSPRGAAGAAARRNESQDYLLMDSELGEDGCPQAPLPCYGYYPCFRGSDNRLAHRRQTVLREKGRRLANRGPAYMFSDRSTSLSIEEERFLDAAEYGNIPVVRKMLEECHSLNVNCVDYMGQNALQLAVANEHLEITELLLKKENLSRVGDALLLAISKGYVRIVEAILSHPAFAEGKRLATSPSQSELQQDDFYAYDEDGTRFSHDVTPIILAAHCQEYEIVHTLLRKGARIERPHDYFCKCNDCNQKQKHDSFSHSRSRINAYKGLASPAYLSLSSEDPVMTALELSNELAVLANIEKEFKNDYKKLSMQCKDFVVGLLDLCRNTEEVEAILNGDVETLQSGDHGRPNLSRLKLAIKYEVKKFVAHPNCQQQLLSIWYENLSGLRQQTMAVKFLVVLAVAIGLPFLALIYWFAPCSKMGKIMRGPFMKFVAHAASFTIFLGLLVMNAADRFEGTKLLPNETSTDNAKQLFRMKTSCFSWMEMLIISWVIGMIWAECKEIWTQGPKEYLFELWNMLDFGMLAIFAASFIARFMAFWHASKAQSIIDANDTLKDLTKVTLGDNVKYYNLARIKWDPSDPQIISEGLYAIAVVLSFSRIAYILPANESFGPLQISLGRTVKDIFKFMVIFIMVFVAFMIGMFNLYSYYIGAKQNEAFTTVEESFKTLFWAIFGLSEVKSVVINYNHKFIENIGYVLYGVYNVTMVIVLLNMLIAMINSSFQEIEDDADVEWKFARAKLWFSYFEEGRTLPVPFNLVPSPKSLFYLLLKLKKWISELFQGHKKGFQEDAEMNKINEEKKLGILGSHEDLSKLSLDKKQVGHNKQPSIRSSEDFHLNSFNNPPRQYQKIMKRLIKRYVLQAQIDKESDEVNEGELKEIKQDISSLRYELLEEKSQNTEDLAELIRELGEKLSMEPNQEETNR
As to conditions: WO 2013 021038 A1; cited from earlier work.

For series [5], the system named is B16V mouse melanoma cells. Put plainly: Synergistic in vitro melanin inhibition (procedure of Example 1, Kull synergy index). Format: cell-based. As to conditions: experiments 1 and 2, mixture 75% Larixol / 25% SymWhite 377. Here is the method:
as §1, §2
From the inhibition of pigmentation (%) in a series of dilutions of test compounds, the IC50 for each test compound is calculated. […]
The Synergy Index (SI)^1 is calculated according to Kull's equation as follows: ^1 The calculation of the synergy index (SI-value) was carried out on the basis of following literature: D. C. […]

“And” between values parts separate entries of the source, which are not always exact repeats. Equal entries are not always repeated.

For `C=C[C@@](C)(O)CC[C@H]1C(=C)C[C@H](O)[C@H]2C(C)(C)CCC[C@]12C` [Larixol, (1S,4S,4aR,8aS)-4-[(3S)-3-Hydroxy-3-methylpent-4-enyl]-4a,8,8-trimethyl-3-methylenedecahydronaphthalen-1-ol], in the series with Human skin, the “Melanin score vs. Control” value is given as −41%. In addition, the “incorporation into commonly used cosmetic formulations” value in series [1] was “can easily be incorporated”. The “PAI-1 inhibition (screening)” value in series [2] is recorded as “PAI-1 inhibitor”. Also, in series [3], the IC50 – broadly, the concentration needed to halve the response being measured – was determined as 3.9 µM. For the same compound, the “inhibitory activity towards melanin formation in melanocytes” value in series [3] (statement in words) was “strong inhibitory activity”. The TRPC6 antagonism entry in series [4] is given as “TRPC6 antagonists”. Also, in series [5], the “Melanin inhibition IC50” value was 0.00011%.
`CC(c1ccccc1)c1ccc(O)cc1O` (stereo not shown) [SymWhite ® 377, 4-(1-phenylethyl)1,3-dihydroxybenzene]: the “Melanin inhibition IC50” value in series [5] is 0.000021% and 0.000034%.
Consider `OC[C@H]1O[C@@H](Oc2ccc(O)cc2)[C@H](O)[C@@H](O)[C@@H]1O` [beta-Arbutin, reference compound], for which the IC50 in series [3] stood at 67 µM.
As to `C=CC(C)(O)CCC1C(=C)CC(OC(C)=O)C2C(C)(C)CCCC12C` (stereo not shown) [larixyl acetate], the TRPC6 antagonism entry in series [4] is given as “TRPC6 antagonists”.
Consider `C=CC(C)(CCC1C(=C)CC(OC(C)=O)C2C(C)(C)CCCC12C)OC(C)=O` (stereo not shown) [larixyl diacetate], for which the TRPC6 antagonism entry in series [4] is given as “TRPC6 antagonists”.
For the compound `C=C[C@](C)(O)CC[C@H]1C(=C)CC[C@H]2C(C)(C)CCC[C@]12C` [manool], the crystallisation in formulation result in series [1] (formulation with manool, after a few days) is listed as “crystallisation of manool after a few days”. Also, the “incorporation into commonly used cosmetic formulations” value in series [1] is “difficult to incorporate”.
